The target of assay [1] is T1, Phospho-KIT (Tyr719) (Homo sapiens, UniProt P10721, K642E).
T1 construct: endogenous in cells; host or cells: GIST882
The assay is described as follows: GIST882 KIT Western Blot. The class given is cell-based. As to conditions: GIST882 cells, 4 hours, serum-free medium; read-out: pKIT suppression by western blot analysi GIST 882. How it is done: GIST48, GIST430, and GIST882 cells were obtained from J. Fletcher (Brigham and Women's Hospital, Boston, MA). GIST T1 cells were obtained from B. Rubin (Cleveland Clinic, Cleveland, OH) and Professor Takahiro Taguchi (Kochi Medical School, Nankoku, Kochi, Japan). […] GIST430 cells were grown in Ham's F10 medium supplemented with 15% characterized fetal bovine serum (Invitrogen, Carlsbad, CA), 30 mg/L bovine pituitary extract (BD Biosciences, San Jose, CA), 0.5% Mito+ serum extender (BD Biosciences, San Jose, CA), 1 unit/mL penicillin G, 1 µg/ml streptomycin, and 0.29 mg/mL L-glutamine at 37 °C, 5%CO2, 95% humidity. GIST T1 cells were grown in DMEM medium supplemented with 10% characterized fetal bovine serum (Invitrogen, Carlsbad, CA), 1 unit/mL penicillin G, 1 µg/ml streptomycin, and 0.29 mg/mL L-glutamine at 37 °C, 5% CO2, and 95% humidity.
Two hundred fifty thousand cells were added per well in a 24-well tissue-culture treated plate. […] Medium was aspirated, cells were washed with PBS, and serum-free RPMI1640 medium was added. […] Cells were washed with PBS, then lysed. Cell lysates were separated by SDS-PAGE and transferred to PVDF. Phospho-KIT (Tyr719) was detected using an antibody from Cell Signaling Technology (Beverly, MA), ECL Plus detection reagent (GE Healthcare, Piscataway, NJ) and a Molecular Devices Storm 840 phosphorimager in fluorescence mode. Blots were stripped and probed for total KIT using an antibody from Santa Cruz Biotech (Santa Cruz, CA). IC50 values were calculated using Prism software (Graphpad, San Diego, CA).

Another assay deals with T2, c-KIT D816V kinase (Homo sapiens, UniProt P10721, D816V).
T2 construct: residues T544-V976 with N-terminal GST fusion; purchased deCODE Biostructures
Description: c-KIT D816V kinase Assay. In kind it is biochemical. As to conditions: enzymatic assay, ATP 200 uM. In short, it runs like this: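 Coupled assay in which NADH oxidation was tracked as decreasing absorbance at 340 nm, continuously for 5 hours at 30 °C after adding serially diluted compound. Enzyme: cKit residues T544-V976 with N-terminal tag, GST fusion and TEV cleavage site.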

A further assay has as its target T3, c-KIT T670I kinase (Homo sapiens, UniProt P10721, T670I).
T3 construct: The construct contains residues T544-V976 of cKit; GST (N); TEV cleavage site (internal); purchased deCODE Biostructures
The assay is described as follows: c-KIT T670I kinase assay. The class given is biochemical. As to conditions: enzymatic assay. A digest of the protocol:
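Coupled spectrophotometric assay following NADH oxidation as absorbance decrease at 340 nm, monitored continuously for 5 h at 30 °C after adding serially diluted compound. Enzyme is a cKit construct with N-terminal tag, GST fusion and TEV site, carrying the T670I mutation.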

Assay [2] has as its system Phospho-KIT (Tyr719). The assay is described as follows: GIST48 KIT Western Blot. As to conditions: GIST48 cells, 4 hours, serum-free medium; read-out: pKIT suppression by western blot analysi GIST48. The class given is cell-based. In short, it runs like this:
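Phospho-KIT (Tyr719) was immunoblotted on PVDF and imaged in fluorescence mode after ECL Plus, with stripping and reprobing for total KIT. IC50 values were derived from the blot signals.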

For the next assay, the target named is c-KIT kinase (Homo sapiens, UniProt P10721). The assay is described as follows: c-KIT kinase Assay. In kind it is biochemical. As to conditions: enzymatic assay, ATP 200 µM; read-out: KIT (wt) IC50. Further details: cKIT residues T544-V976; GST (N); TEV cleavage site (internal); purchased deCODE Biostructures. A digest of the protocol:
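Activity of wild-type human c-KIT kinase was followed as NADH oxidation, read as falling absorbance at 340 nm on a Synergy 2 plate reader (BioTeK) for 2 hours at 30 °C. Rates from the 0 to 1 h window were compared with an uninhibited control to give percent inhibition. IC50 values were fitted in GraphPad Prism across a range of inhibitor concentrations.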

In assay [3] the test system is Phospho-KIT (Tyr719). The assay is described as follows: GIST430 KIT Western Blot. In kind it is cell-based. As to conditions: GIST430 cells, 4 hours, serum-free medium; read-out: pKIT suppression by western blot analysi GIST430. A digest of the protocol: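 GIST430 cells were compound-treated in serum-free Ham's F10, then lysed. Phospho-KIT (Tyr719) was measured by western blot with fluorescence-mode ECL, and blots were reprobed for total KIT; IC50 derived from concentration response.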

pIC50: −log10 of the molar value. Bounds are passed on as bounds.

T3 sequence (P10721 544-976 T670I): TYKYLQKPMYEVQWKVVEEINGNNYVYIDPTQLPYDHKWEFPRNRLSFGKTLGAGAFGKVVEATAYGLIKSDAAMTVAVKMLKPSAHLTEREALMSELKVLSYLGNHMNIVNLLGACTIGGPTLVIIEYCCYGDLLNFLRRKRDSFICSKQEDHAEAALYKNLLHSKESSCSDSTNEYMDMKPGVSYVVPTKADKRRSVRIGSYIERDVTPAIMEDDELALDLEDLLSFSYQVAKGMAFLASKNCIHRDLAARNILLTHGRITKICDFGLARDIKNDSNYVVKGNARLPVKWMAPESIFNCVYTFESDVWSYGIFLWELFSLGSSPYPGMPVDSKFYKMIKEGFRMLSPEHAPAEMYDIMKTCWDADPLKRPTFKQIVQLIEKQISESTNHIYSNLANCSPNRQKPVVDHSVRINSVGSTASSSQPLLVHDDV
T2 sequence (P10721 544-976 D816V): as the sequence (P10721 544-976 T670I) above, with I127T, D273V counted along it
Sequence of c-KIT kinase (P10721 544-976): as the sequence (P10721 544-976 T670I) above, with I127T counted along it
T1 sequence (P10721 26-976 K642E): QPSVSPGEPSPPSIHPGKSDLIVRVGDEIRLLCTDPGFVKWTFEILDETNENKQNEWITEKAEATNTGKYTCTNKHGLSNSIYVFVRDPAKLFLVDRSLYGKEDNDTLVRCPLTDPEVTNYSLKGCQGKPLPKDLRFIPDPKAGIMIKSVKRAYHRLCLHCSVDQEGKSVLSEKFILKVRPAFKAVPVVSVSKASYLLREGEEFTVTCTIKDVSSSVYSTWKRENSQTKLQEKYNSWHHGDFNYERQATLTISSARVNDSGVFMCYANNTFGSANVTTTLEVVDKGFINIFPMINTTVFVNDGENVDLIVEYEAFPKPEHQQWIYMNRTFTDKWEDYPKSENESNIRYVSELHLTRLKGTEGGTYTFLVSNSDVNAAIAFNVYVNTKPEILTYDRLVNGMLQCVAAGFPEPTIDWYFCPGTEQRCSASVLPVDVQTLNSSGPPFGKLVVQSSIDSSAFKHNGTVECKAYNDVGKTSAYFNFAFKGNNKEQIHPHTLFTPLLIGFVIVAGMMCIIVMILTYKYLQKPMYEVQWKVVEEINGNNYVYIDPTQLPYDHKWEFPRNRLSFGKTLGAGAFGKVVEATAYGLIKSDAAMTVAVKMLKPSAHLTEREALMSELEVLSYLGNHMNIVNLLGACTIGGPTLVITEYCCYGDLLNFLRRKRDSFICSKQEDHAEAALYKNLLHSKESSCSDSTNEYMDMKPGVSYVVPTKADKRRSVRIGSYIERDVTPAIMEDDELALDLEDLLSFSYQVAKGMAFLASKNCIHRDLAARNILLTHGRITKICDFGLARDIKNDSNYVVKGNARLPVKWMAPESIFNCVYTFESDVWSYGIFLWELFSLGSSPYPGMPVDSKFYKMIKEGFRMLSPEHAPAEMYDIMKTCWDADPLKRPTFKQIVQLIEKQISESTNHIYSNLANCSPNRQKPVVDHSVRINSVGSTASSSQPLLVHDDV

With `CCn1c(=O)c(-c2cc(NC(=O)Nc3ccccc3)c(F)cc2Cl)cc2cnc(NC)cc21` [Example 3, 1-(4-chloro-5-(1-ethyl-7-(methylamino)-2-oxo-1,2-dihydro-1,6-naphthyridin-3-yl)-2-fluorophenyl)-3-phenylurea], the pIC50 on Phospho-KIT (Tyr719) [1] was 7.00 to 8.00; on c-KIT D816V kinase, 7.00 to 8.00; on c-KIT T670I kinase, 7.00 to 8.00; in the assay with Phospho-KIT (Tyr719) [2], 6.00 to 7.00; on c-KIT kinase, more than 8.00.

Regarding `CCn1c(=O)c(-c2cc(NC(=O)Nc3cccc(F)c3F)c(F)cc2Cl)cc2cnc(NC)cc21` [Example 4, 1-(4-chloro-5-(1-ethyl-7-(methylamino)-2-oxo-1,2-dihydro-1,6-naphthyridin-3-yl)-2-fluorophenyl)-3-(2,3-difluorophenyl)urea], the pIC50 on Phospho-KIT (Tyr719) [1] was more than 8.00; on c-KIT D816V kinase, 7.00 to 8.00; at c-KIT T670I kinase, 7.00 to 8.00; in the assay with Phospho-KIT (Tyr719) [3] it was 7.00 to 8.00; in the assay on Phospho-KIT (Tyr719) [2], 7.00 to 8.00; on c-KIT kinase, more than 8.00.

With `CCn1c(=O)c(-c2cc(NC(=O)Nc3cccc4ccccc34)c(F)cc2Cl)cc2cnc(NC)cc21` [Example 6, 1-(4-chloro-5-(1-ethyl-7-(methylamino)-2-oxo-1,2-dihydro-1,6-naphthyridin-3-yl)-2-fluorophenyl)-3-(naphthalen-1-yl)urea], the pIC50 at Phospho-KIT (Tyr719) [1] was 7.00 to 8.00; at c-KIT D816V kinase it was 7.00 to 8.00; at c-KIT T670I kinase, more than 8.00; in the assay with Phospho-KIT (Tyr719) [3] it was more than 8.00; in the assay on Phospho-KIT (Tyr719) [2], more than 8.00; on c-KIT kinase, more than 8.00.

For `CCn1c(=O)c(-c2cc(NC(=O)Nc3cccc(F)c3)c(F)cc2Cl)cc2cnc(N)cc21` [Example 20, 1-(5-(7-amino-1-ethyl-2-oxo-1,2-dihydro-1,6-naphthyridin-3-yl)-4-chloro-2-fluorophenyl)-3-(3-fluorophenyl)urea], the pIC50 is 7.00 to 8.00 at Phospho-KIT (Tyr719) [1]; more than 8.00 on c-KIT D816V kinase; more than 8.00 on c-KIT T670I kinase; 7.00 to 8.00 with Phospho-KIT (Tyr719) [3]; 6.00 to 7.00 with Phospho-KIT (Tyr719) [2]; more than 8.00 at c-KIT kinase.

`CNc1cc2c(cn1)cc(-c1cc(NC(=O)Nc3ccccc3)c(F)cc1Cl)c(=O)n2C(C)C` [Example 22, 1-(4-chloro-2-fluoro-5-(1-isopropyl-7-(methylamino)-2-oxo-1,2-dihydro-1,6-naphthyridin-3-yl)phenyl)-3-phenylurea]: the pIC50 on Phospho-KIT (Tyr719) [1] is 7.00 to 8.00; at c-KIT D816V kinase it was more than 8.00; at c-KIT T670I kinase, 6.00 to 7.00; in the assay on Phospho-KIT (Tyr719) [3], 7.00 to 8.00; in the assay with Phospho-KIT (Tyr719) [2], 7.00 to 8.00; at c-KIT kinase, more than 8.00.

Take `CCn1c(=O)c(-c2cc(NC(=O)Nc3ccccc3)c(F)cc2C)cc2cnc(NC)cc21` [Example 23, 1-(5-(1-ethyl-7-(methylamino)-2-oxo-1,2-dihydro-1,6-naphthyridin-3-yl)-2-fluoro-4-methylphenyl)-3-phenylurea]: the pIC50 is 7.00 to 8.00 at Phospho-KIT (Tyr719) [1]; 7.00 to 8.00 at c-KIT D816V kinase; 7.00 to 8.00 at c-KIT T670I kinase; 6.00 to 7.00 in the assay with Phospho-KIT (Tyr719) [2]; more than 8.00 at c-KIT kinase.

Consider `CCn1c(=O)c(-c2cc(NC(=O)Nc3cccc(F)c3)c(F)cc2Cl)cc2cnc(NC)cc21` [Example 24, 1-[4-chloro-5-(1-ethyl-7-methylamino-2-oxo-1,2-dihydro-[1,6]naphthyridin-3-yl)-2-fluoro-phenyl]-3-(3-fluoro-phenyl)-urea], for which the pIC50 is 7.00 to 8.00 on Phospho-KIT (Tyr719) [1]; more than 8.00 at c-KIT D816V kinase; more than 8.00 on c-KIT T670I kinase; more than 8.00 with Phospho-KIT (Tyr719) [3]; 7.00 to 8.00 with Phospho-KIT (Tyr719) [2]; more than 8.00 on c-KIT kinase.

As to `CCn1c(=O)c(-c2cc(NC(=O)Nc3ccccc3F)c(F)cc2Cl)cc2cnc(NC)cc21` [Example 25, 1-[4-chloro-5-(1-ethyl-7-methylamino-2-oxo-1,2-dihydro-[1,6]naphthyridin-3-yl)-2-fluoro-phenyl]-3-(2-fluoro-phenyl)-urea], the pIC50 on Phospho-KIT (Tyr719) [1] is 7.00 to 8.00; at c-KIT D816V kinase, 7.00 to 8.00; on c-KIT T670I kinase it was more than 8.00; in the assay on Phospho-KIT (Tyr719) [3] it was 7.00 to 8.00; in the assay with Phospho-KIT (Tyr719) [2] it was 7.00 to 8.00; at c-KIT kinase, more than 8.00.

As for `CCn1c(=O)c(-c2cc(NC(=O)Nc3ccccc3)c(F)cc2Cl)cc2cnc(NCCOC)cc21` [Example 27, 1-(4-chloro-5-(1-ethyl-7-(2-methoxyethylamino)-2-oxo-1,2-dihydro-1,6-naphthyridin-3-yl)-2-fluorophenyl)-3-phenylurea], the pIC50 on Phospho-KIT (Tyr719) [1] is 6.00 to 7.00; on c-KIT D816V kinase, 7.00 to 8.00; at c-KIT T670I kinase, 7.00 to 8.00; in the assay on Phospho-KIT (Tyr719) [3] it was 7.00 to 8.00; in the assay on Phospho-KIT (Tyr719) [2], 7.00 to 8.00; on c-KIT kinase it was more than 8.00.

Turning to `CCn1c(=O)c(-c2cc(NC(=O)Nc3cccc(F)c3)c(F)cc2Cl)cc2cnc(NCCOC)cc21` [Example 28, 1-(4-chloro-5-(1-ethyl-7-(2-methoxyethylamino)-2-oxo-1,2-dihydro-1,6-naphthyridin-3-yl)-2-fluorophenyl)-3-(3-fluorophenyl)urea], the pIC50 is 7.00 to 8.00 on Phospho-KIT (Tyr719) [1]; 7.00 to 8.00 on c-KIT D816V kinase; 7.00 to 8.00 at c-KIT T670I kinase; 7.00 to 8.00 with Phospho-KIT (Tyr719) [3]; 6.00 to 7.00 with Phospho-KIT (Tyr719) [2]; 7.00 to 8.00 on c-KIT kinase.

Consider `CCn1c(=O)c(-c2cc(NC(=O)Nc3csc4ccccc34)c(F)cc2Cl)cc2cnc(NC)cc21` [Example 32, 1-(benzo[b]thiophen-3-yl)-3-(4-chloro-5-(1-ethyl-7-(methylamino)-2-oxo-1,2-dihydro-1,6-naphthyridin-3-yl)-2-fluorophenyl)urea], for which the pIC50 at Phospho-KIT (Tyr719) [1] was 7.00 to 8.00; on c-KIT D816V kinase, more than 8.00; at c-KIT T670I kinase, 7.00 to 8.00; with Phospho-KIT (Tyr719) [3] it was more than 8.00; in the assay with Phospho-KIT (Tyr719) [2] it was more than 8.00; on c-KIT kinase it was more than 8.00.

Consider `CCn1c(=O)c(-c2cc(NC(=O)Nc3cc(F)cc(F)c3)c(F)cc2C)cc2cnc(NC)cc21` [Example 60, 1-(3,5-difluorophenyl)-3-(5-(1-ethyl-7-(methylamino)-2-oxo-1,2-dihydro-1,6-naphthyridin-3-yl)-2-fluoro-4-methylphenyl)urea], for which the pIC50 at c-KIT D816V kinase is 7.00 to 8.00; at c-KIT T670I kinase it was 6.00 to 7.00; with Phospho-KIT (Tyr719) [3], 7.00 to 8.00; in the assay with Phospho-KIT (Tyr719) [2], less than 6.00; at c-KIT kinase it was more than 8.00.

In the case of `CCn1c(=O)c(-c2cc(NC(=O)Nc3cc(F)ccc3F)c(F)cc2C)cc2cnc(NC)cc21` [Example 61, 1-(2,5-difluorophenyl)-3-(5-(1-ethyl-7-(methylamino)-2-oxo-1,2-dihydro-1,6-naphthyridin-3-yl)-2-fluoro-4-methylphenyl)urea], the pIC50 is 7.00 to 8.00 at c-KIT D816V kinase; more than 8.00 at c-KIT T670I kinase; 7.00 to 8.00 in the assay on Phospho-KIT (Tyr719) [3]; less than 6.00 with Phospho-KIT (Tyr719) [2]; more than 8.00 on c-KIT kinase.

In the case of `CCn1c(=O)c(-c2cc(NC(=O)Nc3ccccc3)c(F)cc2Cl)cc2cnc(NC(=O)N3CC(N(C)C)C3)cc21` [Example 102, N-(3-(2-chloro-4-fluoro-5-(3-phenylureido)phenyl)-1-ethyl-2-oxo-1,2-dihydro-1,6-naphthyridin-7-yl)-3-(dimethylamino)azetidine-1-carboxamide], the pIC50 on c-KIT D816V kinase was 7.00 to 8.00; on c-KIT T670I kinase it was 7.00 to 8.00; in the assay on Phospho-KIT (Tyr719) [3], 7.00 to 8.00; in the assay on Phospho-KIT (Tyr719) [2], 7.00 to 8.00; at c-KIT kinase, more than 8.00.

For the origin of these results see patent EP3722296B1, “DIHYDRONAPHTHYRIDINES AND RELATED COMPOUNDS USEFUL AS KINASE INHIBITORS FOR THE TREATMENT OF PROLIFERATIVE DISEASES” (Deciphera Pharmaceuticals, LLC, priority 2012, dated 2013).
